Experimental data published in US12636370B2, “Combination therapy for treatment of cancer” (Institute For Cancer Research, priority 2019, dated 2026).

Columns and labels:
Assay type in all cases: cell-based
[1] = tested on: BET proteins (BRD2, BRD3, BRD4); assay: Western blot of BET proteins, OVCAR8 ARV-R cells
[2] = tested on: KURAMOCHI, COV362 and OVCAR5 MZ1-R cells; assay: CellTiter-Glo cell viability, KURAMOCHI, COV362 and OVCAR5 MZ1-R cells; conditions: COV362 and OVCAR5, escalating doses, 5 days
[3] = tested on: OVCAR8 ARV-R cells; assay: CellTiter-Glo cell viability, OVCAR8 ARV-R cells; conditions: escalating doses, 5 days
[4] = tested on: OVSAHO cells; assay: Combination treatment of OVSAHO cells; conditions: BRD4 overexpressing HGSOC cell line OVSAHO
[5] = tested on: OVCAR8 cells; assay: CellTiter-Glo cell viability, OVCAR8 parental cells; conditions: dose escalation, 5 days
[6] = tested on: PEO1 JQ1-R cells; assay: CellTiter-Glo cell viability, PEO1 JQ1-R cells; conditions: escalating doses, 5 days
[7] = tested on: SW48 (KRAS WT) cells; assay: Cell-Titer Glo cell viability, SW48 (KRAS WT) cells
Method: (§1) K-ras mutations promote resistance to BET protein degraders that can be overcome by MTORC1 inhibitors. Briefly, isogenic SW48 colorectal cancer cells expressing wild-type or mutant (G12D) K-ras were treated with increasing doses of MZ1 and cell viability was assessed. Expression of K-ras mutants promote resistance to MZ1 therapy (FIG. 18, Panel A). Immunoblot analysis depicts activation of translation by forced expression of K-ras G12D mutants in SW48 cells (FIG. 18, Panel B). SW48 cells expressing wild-type or K-ras G12D mutants were treated with DMSO, 2 μM RAD001, increasing doses of MZ1 or 2 μM RAD001+increasing doses of MZ1 for 4 hours and BRD4 protein assessed by Western blot. A Cell-Titer Glo assay was performed for cell viability of SW48 (KRAS G12D) cell lines treated with increasing concentrations of RAD001, MZ1 or the combination of RAD001 and MZ1 and cultured for 120 hours. Data were analyzed as % cell viability of DMSO control, presented as means of 3 independent assays. […] Data were analyzed as % cell viability of DMSO control, presented as means of 3 independent assays. […]

[8] = tested on: OVCAR8 cells; assay: Single-run proteome analysis and RNA-seq, OVCAR8 cells; conditions: 48 hours, single-run proteome analysis
Method: Enrichment maps of pathways repressed by short-term BBD generated from single-run proteome profiles of OVCAR8 cells treated with BBDs (MZ1 or ARV825) for 48 hours were prepared (data not shown). Statistical differences in protein log 2 LFQ z-scores comparing BBDs or BBIs to control treated cells was determined by paired T-Test Benjamini-Hochberg adjusted p values at FDR of <0.05 using Perseus Software. […] Enrichment maps were generated in Cytoscape using the Enrichment Map app v2.2.1. […] Statistical differences in protein log 2 LFQ z-scores comparing BBDs or BBIs to control treated cells was determined.

[9] = tested on: translation markers, RNA pol II, MYC; assay: Western blot of translation, BRD4-targets and MYC signaling, OVCAR8 cells; conditions: 500 nM, 48 hours
[10] = tested on: BET proteins, FOSL1, MYC; assay: Western blot of BET proteins and BRD4 targets, JQ1-R cells
[11] = tested on: RTKs, EGFR, ERBB2, ERBB3, FGFR1, and IGF1R; assay: Western blot of kinase (RTK) protein levels, OVCAR8 cells; conditions: 500 nM, 48 hours
[12] = tested on: kinome; assay: MIB-MS kinome profiling, OVCAR8 cells; conditions: 48 hours
[13] = tested on: OVCAR8 JQ1-R cells; assay: CellTiter-Glo cell viability, OVCAR8 JQ1-R cells; conditions: escalating doses, 5 days
[14] = tested on: BET proteins (BRD2, BRD3, BRD4); assay: Western blot of BET protein levels, OVCAR8 parental cells
[15] = tested on: SW48 (KRAS G12D) cells; assay: Cell-Titer Glo cell viability, SW48 (KRAS G12D) cells
Method: as §1

[16] = tested on: OVCAR8 MZ1-R cells; assay: CellTiter-Glo cell viability, OVCAR8 MZ1-R cells; conditions: OVCAR8 MZ1-R, escalating doses, 5 days
[17] = target: T1, BRD4 (Homo sapiens, UniProt O60885); assay: Western blot of BRD4 protein, SW48 K-ras G12D cells; conditions: 4 hours
T1 construct: endogenous in cells
Method: as §1

[18] = tested on: BET proteins (BRD2, BRD4); assay: Western blot of BET proteins, KURAMOCHI, COV362 and OVCAR5 MZ1-R cells
[19] = tested on: RTKs FGFR1, FGFR2, FGFR3, IGF1R and ERBB4; assay: Western blot of RTK protein levels, KURAMOCHI and COV362 cells; conditions: 500 nM, 48 hours
[20] = tested on: BET proteins (BRD2, BRD3, BRD4); assay: Western blot of BET proteins and BRD4 targets, OVCAR8 MZ1-R cells; conditions: Western blot
[21] = tested on: OVCAR8 JQ1-R cells; assay: Apoptosis by cleaved PARP Western blot, OVCAR8 JQ1-R cells
[22] = tested on: OVCAR8 ARV-R cells; assay: Apoptosis by cleaved PARP Western blot, OVCAR8 ARV-R cells

With `Cc1ncsc1-c1ccc(CNC(=O)[C@@H]2C[C@@H](O)CN2C(=O)[C@@H](NC(=O)COCCOCCOCCNC(=O)C[C@@H]2N=C(c3ccc(Cl)cc3)c3c(sc(C)c3C)-n3c(C)nnc32)C(C)(C)C)cc1` [MZ1] the BET protein levels [1] was “failed to reduce BET proteins, block growth or induce apoptosis”, the “cell viability / growth of MZ1-R cells compared with parental cells” value [2] was “rightward shift” and the “cell viability of ARV-R cells compared with parental cells” value [3] was “failed to reduce BET proteins, block growth or induce apoptosis”. For the same molecule, the “dose sufficient to induce sensitivity towards GSK529A, lapatinib or RAD001” value [4] was 10 nM, the GI50 [5] was 0.142 µM and the “cell killing / viability” value [6] was “can be killed by treatment with BET PROTAC MZ1”. The inhibition of viability ([7]; SW48 K-Ras WT cells, single agent, low concentrations) was greater than 50%, the GI50 ([7]; SW48 parental (wild-type K-Ras) cells) was 0.00063 µM and the “global protein level changes” value [8] was “uniquely downregulated proteins involved in ribosome and translation signaling”. For the same molecule, the MYC protein levels [9] was “reduced MYC protein levels”, the “phosphorylation of translation markers” value ([9]; relative to cis-MZ1 or JQ1) was “distinctly reduced phosphorylation of FOX01/3 (T24/32), P70S6 Kinase (T389), pEIF4E (S209) and p4EBP1 (T37/46)” and the BET protein levels [10] was “degraded BET proteins”. For the same molecule, the “BRD4 target (FOSL1, MYC) protein levels” value [10] was “reduced MYC/FOSL1 protein levels”, the RTK protein levels [11] was “MZ1-specific reduction of RTKs, EGFR, ERBB2, ERBB3, FGFR1, and IGF1R” and the “kinase MIB-binding” value [12] was “uniquely increased MIB-binding of INSR, CDK7, EPHA4 and EPHA2”. The “cell viability of JQ1-R cells” value [13] was “inhibited cell viability”, the BET protein levels [14] was “degraded BET proteins in a concentration-dependent manner” and the GI50 ([15]; SW48 cells harboring K-Ras G12D mutation) was 0.063 µM. The “shift in GI50, K-Ras mutant vs parental cells” value ([15]; SW48 isogenic cells) was 10 fold, the “cell viability of MZ1-R cells compared with parental cells” value [16] was “rightward shift” and the BRD4 degradation [17] was “impaired the degradation of BRD4”. The BET protein levels [18] was “failed to mediated degradation of BET proteins”, the RTK protein levels [19] was “downregulation of RTKs protein levels such as FGFR1, FGFR2, FGFR3, IGF1R and ERBB4” and the BET protein levels [20] was “insufficient to degrade BRD2, BRD3 or BRD4”. For the same molecule, the apoptosis [21] was “induced apoptosis” and the apoptosis [22] was “failed to reduce BET proteins, block growth or induce apoptosis”.
